Data as given in patent US11441195B2, “Energetic cancer stem cells (e-CSCs): a new hyper-metabolic and proliferative tumor cell phenotype, driven by mitochondrial energy” (LUNELLA BIOTECH, INC., priority 2018, dated 2022).

Experiments:
[1] = system: 3D tumor sphere formation; conditions: cited from earlier work
MCF7 cells [2] = assay: Mammosphere formation assay (3D-spheroids); format: cell-based, human; conditions: for mammosphere formation in MCF7 cells: dose-dependent (0, 50 and 100 nM), FIG. 8A
Method: Mammosphere formation assay (for generating 3D-spheroids): A single-cell suspension was prepared using enzymatic, and manual disaggregation (25 gauge needle). […] After 5 days of culture, 3D-spheres >50 μm were counted using an eye piece (“graticule”), and the percentage of cells plated which formed spheres was calculated and is referred to as percent mammosphere formation, and was normalized to one (1=100% MSF). Mammosphere formation efficiency was analyzed in both the “low” and “high” sub-populations of auto-fluorescent cells, generated from either 2D-monolayers (M-L vs. M-H) or 3D-spheroids (S-L vs. S-H). All mammosphere experiments were performed in triplicate, at least 3 times independently.

[3] = system: M-H cells from MCF7 monolayers
MCF7 cells [4] = conditions: cited from earlier work
[5] = system: S-H cells (MCF7 3D-spheroids); assay: S-H cell sub-population in MCF7 3D-spheroids after treatment (auto-fluorescence flow-cytometry); format: cell-based, human; conditions: for change in S-H cells: control to 100 nM, FIG. 8B/8C
Method: FIG. 8A is a bar graph showing mammosphere formation in MCF7 cells at various concentrations of DPI, and including Ribociclib at 100 nM. […] Most importantly, e-CSCs derived from 3D-spheroids are highly oxidative and can be effectively targeted with an OXPHOS inhibitor. Non-limiting examples of other OXPHOS inhibitors that may be used in the present approach include atovaquone, irinotecan, sorafenib, niclosamide, and berberine chloride.
Data were analyzed with FlowJo 10.1 software.
For 3D-spheroid suspensions, after 5 days of growth under low-attachment condition, the spheres were collected from six 225 cm2 flasks pre-coated with poly-HEMA and gently centrifuged at 100 g for 5 min. After centrifugation, 1 ml of 0.025% of trypsin was added to the “sphere-pellet” and incubated them at 37° C. for 5 minutes. Using a 25-gauge needle, the sphere-suspension was passed through the syringe 4 times. […] After creating these single-cell suspensions, they were subjected to standard flow-cytometry (using the SONY SH800 Cell Sorter) to isolate the auto-fluorescent cell sub-populations, as indicated above. Examples of flow-cytometry plots are included in the figures, and the gating strategy is shown.

MCF7 monolayers = conditions: after 130 hours of DPI treatment, FIG. 7C
Method: The data represents 100,000 cells after 120 hours of DPI treatment.
Vital mitochondrial staining: Cells were trypsinized and re-suspended into a 1×10^6 cell/ml solution in PBS. 10 nM of MitoTracker Deep-Red (Thermo Fisher Scientific) was added for 30 minutes at 37° C. before centrifugation and re-suspension in PBS Ca/Mg for FACS analysis (ATTUNE NxT) or Cell Sorting (SONY SH 800). All subsequent steps were performed in the dark. Data analysis was performed using FlowJo software.

[6] = breast cancer patients; cited from earlier work

Question: For Cc1n[nH]c(C)c1Cc1sc2c(c1C(=O)N1C[C@H](O)CO1)c(=O)n(C)c(=O)n2CC(C)C [AR-C155858], which “3D tumor sphere formation” value [1] is on record?
Answer: The value was “successfully blocked”.

Question: For [Cl-].c1ccc2c(c1)[I+]c1ccccc1-2 [DPI, Diphenyleneiodonium chloride], which “3D-spheroid formation in MCF7 cells” value (MCF7 cells [2]) is on record?
Answer: The value was “inhibits”.

Question: And the 3D-mammosphere formation (MCF7 cells [2]; 100 nM)?
Answer: The 3D-mammosphere formation was “almost completely inhibited”.

Question: And the “mammosphere formation in MCF7 cells” value (MCF7 cells [2])?
Answer: The value was “inhibited”.

Question: What about the “increase in the number of M-H cells” value ([3]; 100 nM DPI, 2D-monolayer cultures, 5-day period) of the same compound?
Answer: The value was ~7.5 fold.

Question: And the “percentage of M-H cells after treatment” value ([3]; 5-day period (120 hours), concentration dependent, FIG. 7B)?
Answer: The value was “increased”.

Question: And the mitochondrial function (MCF7 cells [4])?
Answer: Its mitochondrial function is “selectively inhibits”.

Question: What about the toxic side effects (MCF7 cells [4]) of the same compound?
Answer: Its toxic side effects is “without any toxic side effects”.

Question: What about the “changes in cell viability or apoptosis” value (MCF7 cells [4]; prior studies) of the same compound?
Answer: Its value is “did not induce changes”.

Question: And the metabolic phenotype shift (MCF7 cells [4]; prior studies)?
Answer: The metabolic phenotype shift was “shifted the cells towards a more glycolytic phenotype”.

Question: And the “depletion of S-H cells in anchorage-independent single live cells” value ([5]; 100 nM)?
Answer: Its value is ~60%.

Question: What about the “change in S-H cells” value [5] of the same compound?
Answer: The value was “decreasing”.

Question: What about the “mitochondrial mass (MitoTracker)” value (MCF7 monolayers) of the same compound?
Answer: The value was “increased”.

Question: For CN(C)C(=O)c1cc2cnc(Nc3ccc(N4CCNCC4)cn3)nc2n1C1CCCC1 [Ribociclib], which most common side-effects [6] is on record?
Answer: The most common side-effects was “neutropenia, anemia and GI-distress”.

Question: What about the “mammosphere formation in MCF7 cells” value (MCF7 cells [2]) of the same compound?
Answer: The value was “inhibited”.

Question: And the “propagation of S-H cells” value ([5]; FIGS. 8A-C)?
Answer: Its value is “effectively inhibits”.

Question: What about the “change in S-H cells” value [5] of the same compound?
Answer: Its value is “decreasing”.

Question: For CCCCC[C@H](CC(=O)NO)C(=O)N[C@H](C(=O)N1CCC[C@H]1CO)C(C)C [actinonin], which “3D tumor sphere formation” value [1] is on record?
Answer: Its value is “successfully blocked”.

Question: For CC[C@H]1OC(=O)[C@H](C)[C@@H](O[C@H]2C[C@@](C)(OC)[C@@H](O)[C@H](C)O2)[C@H](C)[C@@H](O[C@@H]2O[C@H](C)C[C@H](N(C)C)[C@H]2O)[C@](C)(O)C[C@@H](C)CN(C)[C@H](C)[C@@H](O)[C@]1(C)O [azithromycin], which “3D tumor sphere formation” value [1] is on record?
Answer: Its value is “successfully blocked”.

Question: With COc1nc2ccc(Br)cc2cc1[C@@H](c1ccccc1)[C@@](O)(CCN(C)C)c1cccc2ccccc12 [bedaquiline] as the compound, how does the “3D tumor sphere formation” value [1] read?
Answer: The value was “successfully blocked”.

Question: With COc1ccc2cc3[n+](cc2c1OC)CCc1cc2c(cc1-3)OCO2 [berberine] as the compound, how does the “3D tumor sphere formation” value [1] read?
Answer: Its value is “successfully blocked”.

Question: For COc1ccc([C@@H]2CC(=O)c3c(O)cc(O[C@@H]4O[C@H](COC(=O)CC(C)(O)CC(=O)O)[C@@H](O)[C@H](O)[C@H]4O[C@@H]4O[C@@H](C)[C@H](O)[C@@H](O)[C@H]4O)cc3O2)cc1O (stereo partly shown) [brutieridin], which “3D tumor sphere formation” value [1] is on record?
Answer: Its value is “successfully blocked”.

Question: For C[C@@H]1O[C@@H](O[C@@H]2[C@@H](Oc3cc(O)c4c(c3)O[C@H](c3ccc(O)cc3)CC4=O)O[C@@H](COC(=O)C[C@@](C)(O)CC(=O)O)[C@H](O)[C@H]2O)[C@@H](O)[C@H](O)[C@H]1O [melitidin], which “3D tumor sphere formation” value [1] is on record?
Answer: Its value is “successfully blocked”.

Question: Which “3D tumor sphere formation” value [1] does the source give for CC[C@H]1/C=C/C=C/C[C@@H](C)[C@H](O)[C@@](C)(O)C(=O)[C@@H](C)[C@H](O)[C@@H](C)C(=O)[C@@H](C)[C@H](O)[C@@H](C)/C=C/C(=O)O[C@@H]2[C@H](C)[C@H](CC1)O[C@]1(CC[C@H](C)[C@H](C[C@@H](C)O)O1)[C@H]2C [oligomycin] here?
Answer: Its value is “successfully blocked”.

Question: With CN(C)c1cc(NC(=O)CNC(C)(C)C)c(O)c2c1C[C@H]1C[C@H]3[C@H](N(C)C)C(O)=C(C(N)=O)C(=O)[C@@]3(O)C(O)=C1C2=O [tigecycline] as the compound, how does the “3D tumor sphere formation” value [1] read?
Answer: Its value is “successfully blocked”.
